This note sets out measurements from ChEMBL document CHEMBL1201862, “PubChem BioAssay data set” (2004).

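Each compound was tested at five concentrations against cells in 96-well plates for 48 hours. At the GI50, growth is halved.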 The source made the active and inactive calls. Rule as the data show it: active = GI50 up to about 1.1 µM and inactive = higher.

Test systems include RXF 393; MDA-MB-231; SN12C; HOP-62; M14; UACC-62; SK-MEL-28; NCI-H460; LOX IMVI; SF-539; NCI/ADR-RES; MDA-N; BT-549; Hs-578T; SK-OV-3; HL-60; U-251; SNB-19; EKVX; CCRF-CEM.
What all share (experiment): growth of human tumour cells (NCI), 48 h

As for `c1ccc(-c2cc(-c3cc(-c4ccccn4)[nH]n3)n[nH]2)nc1`, the GI50 is > 100 µM (inactive) in the test on RXF 393; > 100 µM (inactive) with MDA-MB-231; 27.6 µM (inactive) in the test with SN12C; 92.9 µM (inactive) with HOP-62; 30.8 µM (inactive) in the test on M14; > 100 µM (inactive) with UACC-62. The GI50 in the test with SK-MEL-28 was > 100 µM (inactive); in the test on NCI-H460 it was 35.6 µM (inactive); in the test on LOX IMVI, 94.4 µM (inactive); with SF-539 it was > 100 µM (inactive); with NCI/ADR-RES, 44.5 µM (inactive); in the test with MDA-N, 77.3 µM (inactive). The GI50 in the test on BT-549 was > 100 µM (inactive); in the test with Hs-578T, > 100 µM (inactive); with SK-OV-3, > 100 µM (inactive); in the test on HL-60, 84.3 µM (inactive); with U-251, > 100 µM (inactive); in the test with SNB-19, > 100 µM (inactive). Besides, the GI50 with EKVX was 25.4 µM (inactive).

As for `O=C1/C(=C/c2cc3c(=O)c4ccccc4sc3s2)NC(=S)N1c1ccccc1`, the GI50 in the test with RXF 393 is 15.4 µM (inactive); in the test on MDA-MB-231, 89.9 µM (inactive); with SN12C, > 100 µM (inactive); in the test on HOP-62, 5.01 µM (inactive); in the test on UACC-62, > 100 µM (inactive); with SK-MEL-28, > 100 µM (inactive). For the same compound, the GI50 with NCI-H460 is > 100 µM (inactive); with LOX IMVI it was > 100 µM (inactive); with NCI/ADR-RES it was > 100 µM (inactive); with MDA-N it was > 100 µM (inactive); in the test on BT-549 it was 51.8 µM (inactive); with Hs-578T it was > 100 µM (inactive). Besides, the GI50 was 12.2 µM (inactive) in the test on HL-60, 21 µM (inactive) in the test on U-251, 24 µM (inactive) in the test on SNB-19 and 48.3 µM (inactive) in the test with EKVX.

With `COc1cc(C2c3cc4c(cc3OC(C)(O)C2C)OCO4)cc(OC)c1OC` (stereo not drawn), the GI50 in the test on RXF 393 is 0.211 µM (active); with MDA-MB-231, 0.433 µM (active); in the test on SN12C it was 0.505 µM (active); in the test on HOP-62, 0.335 µM (active); in the test on NCI-H460, 0.406 µM (active); with LOX IMVI, 0.692 µM (active). Also, the GI50 in the test with SF-539 was 0.277 µM (active); in the test on NCI/ADR-RES, 0.316 µM (active); in the test on MDA-N, 0.0555 µM (active); in the test with BT-549, 5.42 µM (inactive); in the test on Hs-578T it was 0.449 µM (active); in the test with CCRF-CEM, 0.406 µM (active). In addition, the GI50 with HL-60 is 0.182 µM (active); in the test on U-251, 0.443 µM (active); in the test with SNB-19 it was 0.342 µM (active); in the test on EKVX, 28.6 µM (inactive).

Regarding `O=C1NC(Cc2c[nH]c3ccccc23)C(=O)N2C(c3ccccc3)c3[nH]c4ccccc4c3C[C@@H]12` (stereo partly drawn), the GI50 was 16 µM (inactive) in the test with RXF 393; 20.6 µM (inactive) with MDA-MB-231; 16.4 µM (inactive) in the test with SN12C; 17.2 µM (inactive) in the test on HOP-62; 21.6 µM (inactive) in the test with M14; 17.2 µM (inactive) in the test on UACC-62. The GI50 is 29.7 µM (inactive) with SK-MEL-28; 19.7 µM (inactive) in the test with LOX IMVI; 21.6 µM (inactive) in the test on NCI/ADR-RES; 17.6 µM (inactive) in the test on MDA-N; 21.1 µM (inactive) in the test with BT-549; 16.5 µM (inactive) in the test on Hs-578T. Besides, the GI50 was 31.3 µM (inactive) in the test with SK-OV-3; 20.5 µM (inactive) in the test with HL-60; 19.5 µM (inactive) in the test with U-251; 34.1 µM (inactive) in the test with SNB-19; 22.5 µM (inactive) with EKVX.
